Test results as given in patent publication US12617772B2, “Hydroxypyridine HSD17B13 inhibitors and uses thereof” (INIPHARM, INC., priority 2021, dated 2026).

These compounds were tested against T1, HSD17B13 (Homo sapiens, UniProt Q7Z5P4) (assay: LC/MS estrone detection assay: conversion of estradiol to estrone by HSD17B13). Conditions: 4 μM estradiol, 6 mM NAD, 30 nM HSD17B13 enzyme (E. coli expressed His-tagged), 2 hours at 26.5° C.
T1 construct: His; made in house; host or cells: E. coli
T1 sequence (Q7Z5P4 20-300): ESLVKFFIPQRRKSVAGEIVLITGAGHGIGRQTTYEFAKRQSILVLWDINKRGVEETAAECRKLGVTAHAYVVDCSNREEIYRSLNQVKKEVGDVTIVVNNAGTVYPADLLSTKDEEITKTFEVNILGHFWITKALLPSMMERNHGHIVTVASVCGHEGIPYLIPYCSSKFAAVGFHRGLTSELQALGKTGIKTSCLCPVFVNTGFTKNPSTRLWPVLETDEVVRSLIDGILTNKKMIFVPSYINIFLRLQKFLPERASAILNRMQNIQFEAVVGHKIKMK
Assay type: biochemical
Method: Example A: Estrone Detection Assay for Evaluation of HSD17ß13 Activity and Identification of Inhibitors
The liquid chromatography/mass spectrometry (LC/MS) estrone detection assay monitors the conversion of estradiol to estrone by HSD17B13. This assay was undertaken in a 96 wp format (Eppendorf deep well Plate 96/500) in an 80 μl reaction volume containing: 4 μM of Estradiol (E2; Cayman; #10006315), 6 mM NAD (Sigma; #N0623) and 30 nM HSD17B13 enzyme (in-house; E. coli expressed His-tagged, purified, soluble protein) in a reaction containing […] potassium phosphate buffer pH 7.4, with 0.5% vehicle (DMSO). Reactions were incubated for 2 hours at 26.5° C., and estradiol (E2) conversion to estrone (E1) was quantitated by LC-MS/MS based analyte detection for both E2 and E1 using LCMS grade reagents.
Reactions were terminated by the addition of two volumes of acetonitrile (MeCN: LCMS grade; CAS #75/05/8) containing deuterated (D4)-E1 used as internal standard (Clear Synth: #CS-T-54273; 500 ng/ml final concentration). Samples were applied to pre-prepared Bond Elut-C18 extraction cartridges (3 mL; Agilent; #12102028), washed and eluted in MeCN. Eluates were dried under nitrogen and re-suspended in 60% methanol (LCMS grade methanol; CAS #67/56/1) before submission for analysis. Aqueous linearity for E2 and E1 were included for quantification.
Analysis of samples was undertaken on a XBridge BEH C18 column (Waters; #186003033) using 0.1% Diethyl Amine in MeCN (mobile phase A; DEA CAS #109-89-7) and 0.1% Diethyl Amine in milli-Q water (mobile phase B) in a 3 min gradient allowing 25% B. Analytes were detected in negative mode using MRM analysis, with E2 having a RT of 1.85 min and E1 having a RT of 2 min. Activity of the enzyme, in the absence of NAD^+, was used to evaluate specificity of conversion. Enzyme activity in the presence of test samples was expressed as a percentage of the uninhibited enzyme activity, and plotted versus inhibitor concentration. Non-linear regression was performed using a four-parameter logistic model and GraphPad Prism software (GraphPad Software, La Jolla, CA). All assessments were undertaken in duplicate evaluations and pooled during extraction process and subsequently injected as duplicates for LC-MS/MS analysis.

SMILES	IC50
O=C(Nc1cccc2ncn(CCc3ccccc3C(F)(F)F)c(=O)c12)c1ccc(O)c(C(F)(F)F)n1 [Example 2, 5-hydroxy-N-(4-oxo-3-(2-(trifluoromethyl)phenethyl)-3,4-dihydroquinazolin-5-y1)-6-(trifluoromethyl)picolinamide]	100 to 500 nM
COc1ccccc1CCn1cnc2cccc(NC(=O)c3ccc(O)c(C(F)(F)F)n3)c2c1=O [Example 6, 5-hydroxy-N-(3-(2-methoxyphenethyl)-4-oxo-3,4-dihydroquinazolin-5-yl)-6-(trifluoromethyl) picolinamide]	≤ 100 nM
O=C(Nc1cccc2ncn(CCc3ccccc3OC(F)(F)F)c(=O)c12)c1ccc(O)c(C(F)(F)F)n1 [Example 1, 5-hydroxy-N-(4-oxo-3-(2-(trifluoromethoxy)phenethyl)-3,4-dihydroquinazolin-5-yl)-6-(trifluoromethyl)picolinamide]	≤ 100 nM
O=C(Nc1cccc2ncn(Cc3ccccc3OC(F)(F)F)c(=O)c12)c1ccc(O)c(C(F)(F)F)n1 [Example 3, 5-hydroxy-N-(4-oxo-3-{[2-(trifluoromethoxy)phenyl]methyl}-3,4-dihydroquinazolin-5-yl)-6-(trifluoromethyl) pyridine-2-carboxamide]	≤ 100 nM
CC(C)(C)CCNC(=O)c1sccc1NC(=O)c1ccc(O)c(C(F)(F)F)n1 [Example 5, N-(2-((3,3-dimethylbutyl)carbamoyl)thiophen-3-y1)-5-hydroxy-6-(trifluoromethyl) picolinamide]	≤ 100 nM
O=C(Nc1cc(Cl)sc1C(=O)NCCc1ccccc1OC(F)(F)F)c1ccc(O)c(C(F)(F)F)n1 [Example 7, N-(5-chloro-2-((2-(trifluoromethoxy)phenethyl)carbamoyl)thiophen-3-y1)-5-hydroxy-6-(trifluoromethyl)picolinamide]	100 to 500 nM
